Experimental data taken from the supplement of paper PMC11061612.

Assays:
Assay in all cases: combination Emax (second highest fraction inhibited in the dose matrix, 72 h); higher = more inhibition; extreme values may be limits of the assay
[1] = test system: 647-V (Bladder Carcinoma)
Procedure, shortened: (§1)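 After 24 hours at 37°C and 5% CO2 in 1536-well plates, cells in DMEM/F12 or RPMI plus 10% FBS received two-drug dose matrices for 72 hours. Viability came from CellTiter-Glo 2.0 luminescence and was scaled as inhibition, anchored at 0 by vehicle wells and at 1 by blank wells. Combination Emax is taken as the second-highest inhibition in the matrix, and Bliss excess as the observed combination effect less EA + EB − EA·EB, with EA and EB the single-agent effects.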

[2] = test system: CAL-39 (Other Solid Carcinomas)
Procedure, shortened: as §1

CS1 (Chondrosarcoma) = test system: CS1 (Chondrosarcoma)
Procedure, shortened: as §1

D-392MG (Glioblastoma) = test system: D-392MG (Glioblastoma)
Procedure, shortened: as §1

[3] = test system: DOK (Oral Cavity Carcinoma)
Procedure, shortened: as §1

[4] = test system: EKVX (Non-Small Cell Lung Carcinoma)
Procedure, shortened: as §1

[5] = test system: ETK-1 (Biliary Tract Carcinoma)
Procedure, shortened: as §1

EW-22 (Ewing's Sarcoma) = test system: EW-22 (Ewing's Sarcoma)
Procedure, shortened: as §1

H4 (Low Grade Glioma) = test system: H4 (Low Grade Glioma)
Procedure, shortened: as §1

MCF7 (Breast Carcinoma) = test system: MCF7 (Breast Carcinoma)
Procedure, shortened: as §1

[6] = test system: SK-UT-1 (Other Solid Carcinomas)
Procedure, shortened: as §1

[7] = test system: SKN-3 (Head and Neck Carcinoma)
Procedure, shortened: as §1

[8] = test system: SNG-M (Endometrial Carcinoma)
Procedure, shortened: as §1

[9] = test system: SNU-61 (Colorectal Carcinoma)
Procedure, shortened: as §1

[10] = test system: SW48 (Colorectal Carcinoma)
Procedure, shortened: as §1

[11] = test system: SW948 (Colorectal Carcinoma)
Procedure, shortened: as §1

Saos-2 (Osteosarcoma) = test system: Saos-2 (Osteosarcoma)
Procedure, shortened: as §1

[12] = test system: TYK-nu (Ovarian Carcinoma)
Procedure, shortened: as §1

[13] = test system: WSU-DLCL2 (B-Cell Non-Hodgkin's Lymphoma)
Procedure, shortened: as §1

[14] = test system: YT (Other Blood Carcinomas)
Procedure, shortened: as §1

SMILES	combination Emax [1]	combination Emax [2]	combination Emax (CS1 (Chondrosarcoma))	combination Emax (D-392MG (Glioblastoma))	combination Emax [3]	combination Emax [4]	combination Emax [5]	combination Emax (EW-22 (Ewing's Sarcoma))	combination Emax (H4 (Low Grade Glioma))	combination Emax (MCF7 (Breast Carcinoma))	combination Emax [6]	combination Emax [7]	combination Emax [8]	combination Emax [9]	combination Emax [10]	combination Emax [11]	combination Emax (Saos-2 (Osteosarcoma))	combination Emax [12]	combination Emax [13]	combination Emax [14]
CC1(C)CCC(CN2CCN(c3ccc(C(=O)NS(=O)(=O)c4ccc(NCC5CCOCC5)c([N+](=O)[O-])c4)c(Oc4cnc5[nH]ccc5c4)c3)CC2)=C(c2ccc(Cl)cc2)C1 [Venetoclax] + CN(C)CCCOc1ccc(-c2ccc3ncc4c(c3c2)n(C2CCOCC2)c(=O)n4C)cn1 [AZD0156] (first compound max 1 µM, 7x7, partner max 1 µM)	0.196	0.21	0.56	0.205	0.2	0.22	0.202	0.866	0.232	0.242	0.381	0.134	0.127	0.182	0.607	0.409	0.42	0.174	0.33	0.475
COc1cccc(OCCCN)c1-c1cc(Nc2cnc(C#N)cn2)n[nH]1 [Prexasertib] + CCc1c2c(nc3ccc(O)cc13)-c1cc3c(c(=O)n1C2)COC(=O)[C@]3(O)CC [SN-38] (first compound max 1 µM, 7x7, partner max 0.3 µM)	1	0.919	0.882	0.551	0.627	0.379	0.727	0.94	0.941	0.685	0.982	0.885	0.899	0.698	0.889	0.94	0.887	0.861	1	0.96
CN(CCO)CC[C@H](CSc1ccccc1)Nc1ccc(S(=O)(=O)NC(=O)c2ccc(N3CCC([C@@H](O)c4ccccc4-c4ccc(Cl)cc4)CC3)cc2)cc1S(=O)(=O)C(F)(F)F [AZD4320] + C[C@@H]1COCCN1C2=NC(=NC(=C2)C3(CC3)[S@](=N)(=O)C)C4=C5C=CNC5=NC=C4 [AZD6738] (first compound max 1 µM, 7x7, partner max 10 µM)	0.816	0.619	0.83	0.792	0.587	0.252	0.675	1	0.9	0.656	0.919	0.546	0.973	0.365	0.954	0.563	0.673	0.803	0.989	0.811
CC1(C)CCC(CN2CCN(c3ccc(C(=O)NS(=O)(=O)c4ccc(NCC5CCOCC5)c([N+](=O)[O-])c4)c(Oc4cnc5[nH]ccc5c4)c3)CC2)=C(c2ccc(Cl)cc2)C1 [Venetoclax] + C[C@@H](Nc1cc(F)cc(F)c1)c1cc(C(=O)N(C)C)cc2c(=O)cc(N3CCOCC3)oc12 [AZD8186] (first compound max 1 µM, 7x7, partner max 3 µM)	0.17	0.841	0.415	0.139	0.188	0.367	0.212	0.881	0.383	0.255	0.206	0.148	0.655	0.103	0.275	0.264	0.34	0.495	0.888	0.631
COc1cccc(OCCCN)c1-c1cc(Nc2cnc(C#N)cn2)n[nH]1 [Prexasertib] + O=C(c1cc(Cc2n[nH]c(=O)c3ccccc23)ccc1F)N1CCN(C(=O)C2CC2)CC1 [Olaparib] (first compound max 1 µM, 7x7, partner max 10 µM)	0.843	0.387	0.706	0.491	0.418	0.194	0.578	0.957	0.845	0.429	0.957	0.616	0.929	0.474	0.658	0.838	0.806	0.748	1	0.966
Cc1c2c(nn1C)CSCc1cc(n(C)n1)CSc1cc(c3ccccc3c1)OCCCc1c(C(=O)O)n(C)c3c-2c(Cl)ccc13 [AZD5991] + CC1(C)CCC(CN2CCN(c3ccc(C(=O)NS(=O)(=O)c4ccc(NCC5CCOCC5)c([N+](=O)[O-])c4)c(Oc4cnc5[nH]ccc5c4)c3)CC2)=C(c2ccc(Cl)cc2)C1 [Venetoclax] (first compound max 1 µM, 7x7, partner max 1 µM)	0.618	0.292	0.16	0.791	0.758	0.138	0.152	0.839	0.726	0.745	0.138	0.15	0.209	0.155	0.339	0.236	0.534	0.233	1	1
COc1cccc(OCCCN)c1-c1cc(Nc2cnc(C#N)cn2)n[nH]1 [Prexasertib] + CN(C)CCCOc1ccc(-c2ccc3ncc4c(c3c2)n(C2CCOCC2)c(=O)n4C)cn1 [AZD0156] (first compound max 1 µM, 7x7, partner max 1 µM)	0.671	0.258	0.685	0.567	0.348	0.265	0.598	0.898	0.917	0.741	0.936	0.616	0.99	0.422	0.767	0.804	0.644	0.73	1	0.964
Cc1cc2ncnn2cc1Nc1ncc2c(n1)n(C1CCOCC1)c(=O)n2C [AZD7648] + CCN(CCO)CCCOc1ccc2c(Nc3cc(CC(=O)Nc4cccc(F)c4)[nH]n3)ncnc2c1 [AZD2811] (first compound max 10 µM, 7x7, partner max 1 µM)	0.262	0.433	0.343	0.329	0.47	0.309	0.25	0.698	0.711	0.55	0.341	0.128	0.281	0.254	0.963	0.737	0.45	0.422	0.476	0.624
Cc1c2c(nn1C)CSCc1cc(n(C)n1)CSc1cc(c3ccccc3c1)OCCCc1c(C(=O)O)n(C)c3c-2c(Cl)ccc13 [AZD5991] + CCN(CCO)CCCOc1ccc2c(Nc3cc(CC(=O)Nc4cccc(F)c4)[nH]n3)ncnc2c1 [AZD2811] (first compound max 1 µM, 7x7, partner max 1 µM)	0.834	0.815	0.315	0.403	0.883	0.226	0.294	0.88	0.586	0.692	0.367	0.271	0.345	0.254	0.984	0.587	0.816	0.534	1	1
Cc1cc2ncnn2cc1Nc1ncc2c(n1)n(C1CCOCC1)c(=O)n2C [AZD7648] + C[C@@H]1COCCN1C2=NC(=NC(=C2)C3(CC3)[S@](=N)(=O)C)C4=C5C=CNC5=NC=C4 [AZD6738] (first compound max 10 µM, 7x7, partner max 10 µM)	0.585	0.485	0.591	0.52	0.453	0.317	0.621	0.851	0.789	0.755	0.757	0.185	0.939	0.326	0.681	0.578	0.561	0.695	0.905	0.833
Cc1cc2ncnn2cc1Nc1ncc2c(n1)n(C1CCOCC1)c(=O)n2C [AZD7648] + CN(C)CCCOc1ccc(-c2ccc3ncc4c(c3c2)n(C2CCOCC2)c(=O)n4C)cn1 [AZD0156] (first compound max 10 µM, 7x7, partner max 1 µM)	0.222	0.322	0.306	0.301	0.249	0.315	0.155	0.467	0.448	0.373	0.214	0.111	0.205	0.172	0.329	0.545	0.171	0.431	0.345	0.705
CN(CCO)CC[C@H](CSc1ccccc1)Nc1ccc(S(=O)(=O)NC(=O)c2ccc(N3CCC([C@@H](O)c4ccccc4-c4ccc(Cl)cc4)CC3)cc2)cc1S(=O)(=O)C(F)(F)F [AZD4320] + Cc1cc2ncnn2cc1Nc1ncc2c(n1)n(C1CCOCC1)c(=O)n2C [AZD7648] (first compound max 1 µM, 7x7, partner max 10 µM)	0.219	0.371	0.347	0.169	0.362	0.237	0.209	0.905	0.204	0.367	0.163	0.0826	0.264	0.107	0.632	0.393	0.21	0.344	0.744	0.675
